Values of other authors in patent publication EP1911850A1, “Method of producing 6-thio-sialylated glycoproteins and glycoconjugates” (CENTRE NATIONAL DE LA RECHERCHE SCIENTIFIQUE (CNRS), priority 2006, dated 2008).

Tested on: a galactosidase
Settings: background statement; comparator not stated

increased stability to digestion by a galactosidase: 200 fold
SMILES: CC(=O)N[C@H]1C(O)O[C@H](CO)[C@@H](O[C@@H]2S[C@H](CO)[C@H](O)[C@H](O)[C@H]2O)[C@@H]1O (stereo partly shown) [5'-Thio-N-acetyllactosamine]
